These are literature values, as cited in patent US20200306172A1, “DEPIGMENTING DERMATOLOGICAL AND COSMETIC COMPOSITIONS” (NUNII LABORATOIRE, priority 2017, published 2020).

The conditions of data set [1]: pH 4 to pH 6.
For data set [2] the following is noted: powder raw material.

Where two headings read alike, the source gives them in different places.

Regarding `CCOC1=C(O)C(=O)O[C@@H]1[C@@H](O)CO` [3-O-ethyl-L-ascorbic acid], the stability result in data set [1] was “more stable than ascorbic acid and its other derivatives”. The solubility entry in data set [2] is “soluble in water and alcohol”.

On to `NC(=O)c1cccnc1` [Niacinamide], for which, in data set [2], the solubility entry is given as “readily soluble in water, alcohol or glycerol”.

Turning to `Oc1ccc(/C=C/c2cc(O)cc(O)c2)cc1` [Trans-resveratrol], the solubility entry in data set [2] was “soluble in polyethylene glycols and propylene glycols”.

For `O=c1cc(CO)occ1O` [kojic acid], the depigmenting activity result is, setting by setting: (kojic acid at 1%) “no depigmenting activity”; (kojic acid at 4% dose) “shows a depigmenting effect”.

`OCC1O[C@H](Oc2ccc(O)cc2)C(O)C(O)[C@@H]1O` (stereo partly drawn) [α-arbutin]: the solubility entry in data set [2] is on record as “readily soluble in water”.
